Tests used:
[1] = Period 2: mass balance (total radioactivity in urine and feces); assay type: in vivo, human
Description: (§1) After a washout of 8–9 days, participants returned to the clinic for Day − 1 of Period 2. On Day 1 of Period 2, after a fast of ≥ 10 h, participants received a single nominal dose of 160 mg (~ 100 µCi; whole body effective dose of 5.3 mrem for a 70-kg human) [^14C]-mobocertinib as a 70 mL oral solution. The actual doses administered ranged from 161 to 163 mg (92.4 to 93.9 µCi). Participants stayed in the clinic from Day − 1 until a discharge criterion (≥ 80% of the total administered radioactive dose was recovered in urine and feces or excretion of radioactivity in urine and feces combined had declined to ≤ 1% of the total administered dose per day for ≥ 2 consecutive intervals) was met, or up to 10 days postdose. To measure the total radioactivity and concentrations of mobocertinib, AP32960, and AP32914 in whole blood and plasma, 4 blood samples were collected predose, and at 0.5, 1, 2, 3, 4, 5, 6, 8, 12, 24, 36, 48, 72, 96, 120, 144, 168, 192, 216, and 240 h postdose; a fifth blood sample was collected for plasma metabolite profiling at predose and 1, 2, 4, 6, 12, 24, 48, 72, 96, 120, and 168 h postdose. Feces and urine were collected predose (feces within 48 h and urine within 24 h prior to dosing), 0–24 h (urine from 0–12 and 12–24 h), and then at 24-hour intervals up to 240 h postdose or until a discharge criterion was met. […] These 2 participants continued with at-home fecal sample collections. One participant provided fecal samples until Day 13 (264–288 h interval) and one participant provided fecal samples until Day 19 (408–432 h interval), after which they met a discharge criterion.
(§2) Plasma, whole blood, and urine samples were assayed for mobocertinib, AP32960, and AP32914 concentrations using liquid chromatography-tandem mass spectrometry (Q2 Solutions, Ithaca, New York, USA). The analytical range for each analyte was 0.250 to 500 ng/mL in whole blood and plasma, and 1.00 to 1000 ng/mL in urine. […] Urine and fecal samples were assayed for total radioactivity following the IV dose of [^14C]-mobocertinib in Period 1, and whole blood, plasma, urine, and fecal samples were assayed for total radioactivity following the oral dose of [^14C]-mobocertinib in Period 2 using liquid scintillation counting (LSC; Celerion, Lincoln, Nebraska, USA; LLOQs: Period 1 urine: 0.115–0.118 ng eq/g, feces: 0.720–0.759 ng eq/g; Period 2 whole blood: 87.3–112 ng eq/g, plasma: 116–132 ng eq/mL, urine: 37.8–46.8 ng eq/g, feces: 110–336 ng eq/g across participants). Urine and fecal samples collected in Period 1 that had total radioactivity concentration equivalents below the LLOQ of the Celerion LSC assay were sent to Pharmaron for measurement by AMS (LLOQ: urine: 0.0000253–0.00111 ng eq/g; feces: 0.000404–0.0278 ng eq/g across participants). The LSC and AMS assays were not cross-validated.
PK parameters for analytes in urine and feces were calculated using SAS Version 9.4 and included the cumulative amounts and percentages of the administered radioactive dose excreted as [^14C]-mobocertinib, [^14C]-AP32960, and [^14C]-AP32914 in urine and feces following IV dosing in Period 1 and oral dosing in Period 2. Renal clearance (CLR) was calculated as the cumulative amount of radiolabeled mobocertinib, AP32960, or AP32914 recovered in urine divided by the plasma AUC to the time of the last common time point at which an analyte was quantifiable in both urine and plasma for individual participants (AUCCLR) following oral dosing of [^14C]-mobocertinib in Period 2. Mass balance was defined as the percentage of total radioactivity recovered in urine and feces combined relative to the total amount of the administered radioactive dose.

[2] = Period 2: urine PK (renal clearance, urinary recovery); assay type: in vivo, human
Description: as §1, with “One participant provided fecal samples until Day 13 (264–288 h interval) and one participant provided fecal samples until Day 19 (408–432 h interval), after which they met a discharge criterion.” left out
as §2, with “USA).” for “USA). The analytical range for each analyte was 0.250 to 500 ng/mL in whole blood and plasma, and 1.00 to 1000 ng/mL in urine.”, “The LSC and AMS assays were not cross-validated.” left out
PK parameters for analytes in urine and feces were calculated using SAS Version 9.4 and included the cumulative amounts and percentages of the administered radioactive dose excreted as [^14C]-mobocertinib, [^14C]-AP32960, and [^14C]-AP32914 in urine and feces following IV dosing in Period 1 and oral dosing in Period 2. […]

[3] = system: platinum-pretreated EGFRex20ins mutation positive locally advanced or metastatic NSCLC; set-up: method as in PMID 34647988; settings: 114 patients, mobocertinib 160 mg orally qd; cited from earlier work
[4] = Period 2, oral solution 160 mg (~100 µCi) [14C]-mobocertinib, geometric mean

Row | cumulative percentage of the radioactive dose recovered in feces (total radioactivity) [1, 4] | cumulative percentage of the radioactive dose recovered in urine (total radioactivity) [1, 4] | cumulative percentage of the radioactive dose recovered in urine and feces combined ([1]; Period 2, oral solution 160 mg (~100 µCi) [14C]-mobocertinib, geometric mean, 432-hour collection interval) | radioactive dose recovered in urine as mobocertinib, AP32960 and AP32914 combined ([2]; Period 2, oral solution 160 mg [14C]-mobocertinib) | total oral radioactive dose recovered in urine as analyte ([2]; Period 2, oral solution 160 mg [14C]-mobocertinib, geometric mean) | Molecule | administered radioactive dose unaccounted for ([1]; male, human, in vivo, po) | cumulative percentage of the radioactive dose recovered in feces (total radioactivity) ([1]; male, human, in vivo, po) | cumulative percentage of the radioactive dose recovered in urine (total radioactivity) ([1]; male, human, in vivo, po) | radioactive dose recovered in urine as mobocertinib, AP32960 and AP32914 combined ([2]; male, human, in vivo, po) | CL renal ([2]; male, human, in vivo, po, 160 mg) | median duration of response [3] | median overall survival [3] | median progression-free survival [3] | objective response rate per independent-review committee [3]
1 |  |  |  |  |  | C=CC(=O)Nc1cc(Nc2ncc(C(=O)OC(C)C)c(-c3cn(C)c4ccccc34)n2)c(OC)cc1N(C)CCN(C)C [Mobocertinib] | Approximately 20% | 76.0% | 3.57% | 1.13% | 11 mL/min | 17.5 months | 24.0 months | 7.3 months | 28%
2 | 76.0% | 3.57% | 79.6% | 1.13% | 0.39% | [^14C]-mobocertinib |  |  |  |  |  |  |  |  | 

Source: paper PMC11327196, “A phase 1 study to assess the absolute bioavailability, mass balance, pharmacokinetics, metabolism, and excretion of [^14C]-mobocertinib, an oral inhibitor of EGFR exon 20 insertion mutations, in healthy participants” (Investigational New Drugs, 2024)
